Data from the supplement of paper PMC10307832.

Tests used:
Assay in all cases: relative viability (nuclei count vs DMSO), 5 days (fraction); higher = more cells survive
BAY61-3606 + Tozasertib = compound: COC1=C(C=C(C=C1)C2=CC3=NC=CN3C(=N2)NC4=C(C=CC=N4)C(=O)N)OC [BAY61-3606] + Cc1cc(Nc2cc(N3CCN(C)CC3)nc(Sc3ccc(NC(=O)C4CC4)cc3)n2)n[nH]1 [Tozasertib] (partner 0.1 µM)
Summary of the method: (§1)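 A single step with final 0.05% Triton X-100, 1% formaldehyde and 1 ug/ml Hoechst fixed the cells and stained nuclei 5 days after treatment. Lung cancer cell lines in 1536-well plates had been treated by pin tool the day after seeding with one drug alone or a fixed anchor-drug dose plus five library-drug doses (not always all listed) in √10 steps, and nuclei were counted on 4× images. Relative viability is the ratio of nuclei in treated wells to nuclei in vehicle wells, taken as the median of duplicate plates.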

Doxorubicin + Foretinib = compound: COc1cccc2c1C(=O)c1c(O)c3c(c(O)c1C2=O)C[C@@](O)(C(=O)CO)C[C@@H]3O[C@H]1C[C@H](N)[C@H](O)[C@H](C)O1 [Doxorubicin] + COc1cc2c(Oc3ccc(NC(=O)C4(C(=O)Nc5ccc(F)cc5)CC4)cc3F)ccnc2cc1OCCCN1CCOCC1 [Foretinib] (partner 0.25 µM)
Summary of the method: as §1

Doxorubicin + Bortezomib = compound: COc1cccc2c1C(=O)c1c(O)c3c(c(O)c1C2=O)C[C@@](O)(C(=O)CO)C[C@@H]3O[C@H]1C[C@H](N)[C@H](O)[C@H](C)O1 [Doxorubicin] + CC(C)C[C@H](NC(=O)[C@H](Cc1ccccc1)NC(=O)c1cnccn1)B(O)O [Bortezomib] (partner 0.002 µM)
Summary of the method: as §1

Doxorubicin + Linsitinib = compound: COc1cccc2c1C(=O)c1c(O)c3c(c(O)c1C2=O)C[C@@](O)(C(=O)CO)C[C@@H]3O[C@H]1C[C@H](N)[C@H](O)[C@H](C)O1 [Doxorubicin] + C[C@]1(O)C[C@@H](c2nc(-c3ccc4ccc(-c5ccccc5)nc4c3)c3c(N)nccn32)C1 [Linsitinib] (partner 1 µM)
Summary of the method: as §1

| Cell Line | relative viability (BAY61-3606 + Tozasertib; first compound 0.02 µM) | relative viability (BAY61-3606 + Tozasertib; first compound 0.06325 µM) | relative viability (BAY61-3606 + Tozasertib; first compound 0.2 µM) | relative viability (BAY61-3606 + Tozasertib; first compound 0.6325 µM) | relative viability (BAY61-3606 + Tozasertib; first compound 2 µM) | relative viability (Doxorubicin + Foretinib; first compound 0.001 µM) | relative viability (Doxorubicin + Foretinib; first compound 0.003162 µM) | relative viability (Doxorubicin + Foretinib; first compound 0.01 µM) | relative viability (Doxorubicin + Foretinib; first compound 0.03162 µM) | relative viability (Doxorubicin + Foretinib; first compound 0.1 µM) | relative viability (Doxorubicin + Bortezomib; first compound 0.001 µM) | relative viability (Doxorubicin + Bortezomib; first compound 0.003162 µM) | relative viability (Doxorubicin + Bortezomib; first compound 0.01 µM) | relative viability (Doxorubicin + Bortezomib; first compound 0.03162 µM) | relative viability (Doxorubicin + Bortezomib; first compound 0.1 µM) | relative viability (Doxorubicin + Linsitinib; first compound 0.001 µM) | relative viability (Doxorubicin + Linsitinib; first compound 0.003162 µM) | relative viability (Doxorubicin + Linsitinib; first compound 0.01 µM) | relative viability (Doxorubicin + Linsitinib; first compound 0.03162 µM) | relative viability (Doxorubicin + Linsitinib; first compound 0.1 µM) |
| --- | --- | --- | --- | --- | --- | --- | --- | --- | --- | --- | --- | --- | --- | --- | --- | --- | --- | --- | --- | --- |
| LC-2-ad | 0.404 | 0.308 | 0.387 | 0.44 | 0.345 | 0.862 | 0.778 | 0.714 | 0.392 | 0.321 | 1.01 | 0.962 | 0.995 | 0.834 | 0.544 | 0.879 | 0.803 | 0.902 | 0.763 | 0.791 |
| NCI-H2087 | 0.223 | 0.253 | 0.166 | 0.176 | 0.157 |  | 1.1 | 1.03 | 0.851 | 0.693 | 0.6 | 0.7 | 0.869 | 0.678 | 0.55 | 0.789 | 0.912 | 1.14 | 0.892 | 0.98 |
| COR-L23 | 0.203 | 0.133 | 0.148 | 0.14 | 0.117 | 0.964 | 1.06 | 0.918 | 0.64 | 0.221 | 1.04 | 0.996 | 0.872 | 0.447 | 0.156 | 0.881 | 1.08 | 0.908 | 0.331 | 0.18 |
| BEN | 0.489 | 0.494 | 0.648 | 0.673 | 0.465 | 0.978 | 0.678 | 0.612 | 0.49 | 0.582 | 1.01 | 1.05 | 0.821 | 0.632 | 0.74 | 0.984 | 0.863 | 0.983 | 0.621 | 0.79 |
| NCI-H520 | 0.48 | 0.432 | 0.461 | 0.452 | 0.356 | 0.831 | 0.729 | 0.619 | 0.673 | 0.548 | 0.575 | 0.581 | 0.46 | 0.361 | 0.269 | 0.888 | 0.986 | 0.826 | 0.698 | 0.73 |
| NCI-H661 | 0.357 | 0.358 | 0.37 | 0.378 | 0.362 | 1.01 | 1 | 0.954 | 0.826 | 0.542 | 0.919 | 0.849 | 0.836 | 0.776 | 0.865 | 0.641 | 0.636 | 0.551 | 0.484 | 0.547 |
| ABC-1 | 0.2 | 0.181 | 0.163 | 0.16 | 0.208 | 1.48 | 1.13 | 1.02 | 0.676 | 0.339 | 0.304 | 0.324 | 0.364 | 0.273 | 0.251 | 0.787 | 0.727 | 0.805 | 0.435 | 0.337 |
| NCI-H2009 | 0.847 | 0.648 | 0.67 | 0.651 | 0.511 | 1.13 | 1.18 | 1.15 | 0.947 | 0.946 | 0.914 | 1.1 | 0.912 | 0.572 | 0.266 | 1.16 | 1.15 | 1.28 | 0.953 | 0.639 |
| NCI-H1993 | 0.521 | 0.582 | 0.621 | 0.59 | 0.577 | 0.876 | 0.851 | 0.769 | 0.673 | 0.839 | 1.1 | 0.945 | 1.06 | 0.634 | 0.439 | 0.711 | 0.751 | 0.741 | 0.659 | 0.733 |
| HCC-78 | 0.499 | 0.317 | 0.312 | 0.415 | 0.28 | 0.577 | 0.627 | 0.528 | 0.517 | 0.499 | 0.322 | 0.532 | 0.419 | 0.392 | 0.562 | 0.539 | 0.454 | 0.493 | 0.491 | 0.47 |
